Reference: ChEMBL document CHEMBL1201862, “PubChem BioAssay data set” (2004)
Active and inactive are the calls of the source.

Key:
[1] = molecular target: G-protein coupled receptor 35 (Homo sapiens, UniProt Q9HC97); test: GPR35 antagonists blocking zaprinast-driven arrestin recruitment, primary screen, imaging, U2OS, beta-arrestin-GFP, zaprinast agonist (AID 2058); format: functional;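 also: antagonist potency meaning inhibition of agonist-induced arrestin redistribution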
[2] = molecular target: T1, RNA-binding protein pos-1 (Caenorhabditis elegans, UniProt G5EF15); test: inhibitors of POS-1/mex-3 RNA binding, dose response, biochemical, fluorescence polarization (AID 1964);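 also: purified POS-1 fused to maltose binding protein made in E. coli; potency of compounds blocking POS-1 binding to fluorescent RNA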
T1 sequence (G5EF15 whole entry): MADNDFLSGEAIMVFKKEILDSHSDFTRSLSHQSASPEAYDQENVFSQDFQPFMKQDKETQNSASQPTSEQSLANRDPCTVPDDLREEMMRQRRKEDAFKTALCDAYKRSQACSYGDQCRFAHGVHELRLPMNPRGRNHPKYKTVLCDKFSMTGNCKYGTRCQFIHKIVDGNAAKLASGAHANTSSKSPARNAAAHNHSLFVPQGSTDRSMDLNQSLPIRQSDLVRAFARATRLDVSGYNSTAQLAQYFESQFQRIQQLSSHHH

[3] = molecular target: T2, Zinc finger protein mex-5 (Caenorhabditis elegans, UniProt Q9XUB2); test: MEX-5/TCR-2 RNA interaction inhibitors, dose response, biochemical, C. elegans, fluorescence polarization (AID 1960)
T2 sequence (Q9XUB2 whole entry): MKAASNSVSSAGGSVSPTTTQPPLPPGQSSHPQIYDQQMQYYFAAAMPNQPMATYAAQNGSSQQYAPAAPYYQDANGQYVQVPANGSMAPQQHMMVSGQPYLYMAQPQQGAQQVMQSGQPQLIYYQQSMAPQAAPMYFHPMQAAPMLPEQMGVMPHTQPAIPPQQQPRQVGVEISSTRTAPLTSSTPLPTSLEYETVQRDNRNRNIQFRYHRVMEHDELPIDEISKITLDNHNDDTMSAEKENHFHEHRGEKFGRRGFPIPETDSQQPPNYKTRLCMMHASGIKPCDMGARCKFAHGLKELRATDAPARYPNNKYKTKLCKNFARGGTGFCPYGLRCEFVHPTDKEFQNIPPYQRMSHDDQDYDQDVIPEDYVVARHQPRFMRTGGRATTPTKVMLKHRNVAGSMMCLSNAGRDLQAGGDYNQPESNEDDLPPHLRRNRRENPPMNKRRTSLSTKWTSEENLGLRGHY

Bcl-2-like protein 10 = molecular target: T3, Bcl-2-like protein 10 (Homo sapiens, UniProt Q9HD36); test: displacers of TR3 peptide from Bcl-B, primary screen, selectivity assay for Bfl-1 inhibitor project, biochemical, fluorescence polarization, FITC-TR3 peptide (AID 748);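 also: fluorescence polarization from a fluorescein-labelled TR3 peptide binding purified Bcl-B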
T3 sequence (Q9HD36 whole entry): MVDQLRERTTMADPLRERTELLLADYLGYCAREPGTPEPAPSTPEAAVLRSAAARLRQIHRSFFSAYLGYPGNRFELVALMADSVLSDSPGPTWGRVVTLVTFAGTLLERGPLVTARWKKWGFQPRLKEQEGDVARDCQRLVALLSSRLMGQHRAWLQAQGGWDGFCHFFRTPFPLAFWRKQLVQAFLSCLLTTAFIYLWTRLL

[4] = molecular target: T4, Carboxy-terminal domain RNA polymerase II polypeptide A small phosphatase 1 (Homo sapiens, UniProt Q9GZU7); test: inhibitors of CTDSP1, concentration-response testing, biochemical assay, absorbance-based, actives from ultra-high-throughput screening (AID 540297); format: functional
T4 sequence (Q9GZU7 whole entry): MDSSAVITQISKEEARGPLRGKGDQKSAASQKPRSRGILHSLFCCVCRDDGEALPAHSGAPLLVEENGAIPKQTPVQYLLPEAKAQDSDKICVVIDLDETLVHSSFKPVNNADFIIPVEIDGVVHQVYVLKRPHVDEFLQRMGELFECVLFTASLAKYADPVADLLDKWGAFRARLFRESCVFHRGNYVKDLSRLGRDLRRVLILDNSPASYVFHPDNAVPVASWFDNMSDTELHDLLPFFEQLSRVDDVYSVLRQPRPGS

[5] = HIV-1 Env-mediated cell fusion inhibitors, dose response, CCR5-tropic Env (AID 2279); format: functional
[6] = molecular target: DNA dC->dU-editing enzyme APOBEC-3A (Homo sapiens, UniProt P31941); test: APOBEC3A DNA deaminase inhibitors, dose response, biochemical (AID 504722); format: functional
Chain of DNA dC->dU-editing enzyme APOBEC-3A (P31941 whole entry): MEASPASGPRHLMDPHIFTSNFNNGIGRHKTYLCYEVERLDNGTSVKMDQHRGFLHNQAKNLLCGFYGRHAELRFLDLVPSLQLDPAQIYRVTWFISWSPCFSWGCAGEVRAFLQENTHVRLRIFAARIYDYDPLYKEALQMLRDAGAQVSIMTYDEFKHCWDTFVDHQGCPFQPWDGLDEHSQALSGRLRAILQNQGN

[7] = molecular target: DNA dC->dU-editing enzyme APOBEC-3G (Homo sapiens, UniProt Q9HC16); test: Dose Response confirmation of small molecule APOBEC3G DNA Deaminase Inhibitors via a fluorescence-based single-stranded DNA deaminase assay. [Related pubchem assays (depositor defined):AID493012, AID493028]; format: functional
Chain of DNA dC->dU-editing enzyme APOBEC-3G (Q9HC16 whole entry): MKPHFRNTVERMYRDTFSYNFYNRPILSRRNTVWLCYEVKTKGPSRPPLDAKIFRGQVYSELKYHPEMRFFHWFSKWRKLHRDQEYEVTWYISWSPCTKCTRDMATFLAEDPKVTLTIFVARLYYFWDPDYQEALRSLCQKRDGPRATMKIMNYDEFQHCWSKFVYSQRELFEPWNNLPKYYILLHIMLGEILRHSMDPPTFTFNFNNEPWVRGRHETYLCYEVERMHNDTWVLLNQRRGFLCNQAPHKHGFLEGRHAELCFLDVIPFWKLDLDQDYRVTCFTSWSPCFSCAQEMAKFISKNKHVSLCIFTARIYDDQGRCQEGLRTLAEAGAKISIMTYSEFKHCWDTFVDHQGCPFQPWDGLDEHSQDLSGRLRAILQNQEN

[8] = molecular target: T5, Rac GTPase-activating protein 1 (Homo sapiens, UniProt Q9H0H5); test: MgcRacGAP GTPase-activating activity inhibitors, confirmation, biochemical, ADP Hunter fluorescence, primary and confirmatory (AID 624330); format: functional
T5 sequence (Q9H0H5 whole entry): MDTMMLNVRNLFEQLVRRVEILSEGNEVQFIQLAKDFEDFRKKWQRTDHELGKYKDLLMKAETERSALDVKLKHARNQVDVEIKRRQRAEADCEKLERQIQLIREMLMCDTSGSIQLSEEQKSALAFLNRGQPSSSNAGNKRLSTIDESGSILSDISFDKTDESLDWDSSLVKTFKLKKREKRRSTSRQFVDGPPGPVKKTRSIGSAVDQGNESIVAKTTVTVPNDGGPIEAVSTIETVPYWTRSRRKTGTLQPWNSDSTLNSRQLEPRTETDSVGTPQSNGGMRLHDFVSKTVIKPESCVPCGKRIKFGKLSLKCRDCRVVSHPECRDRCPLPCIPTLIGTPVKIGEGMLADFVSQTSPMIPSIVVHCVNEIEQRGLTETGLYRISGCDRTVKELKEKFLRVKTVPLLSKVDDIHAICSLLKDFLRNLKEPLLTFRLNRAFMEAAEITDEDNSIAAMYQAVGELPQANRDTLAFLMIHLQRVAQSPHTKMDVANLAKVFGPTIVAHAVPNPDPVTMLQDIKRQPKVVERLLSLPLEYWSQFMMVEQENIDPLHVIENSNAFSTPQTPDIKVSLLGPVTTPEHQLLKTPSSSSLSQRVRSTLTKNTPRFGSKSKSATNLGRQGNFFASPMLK

[9] = molecular target: T6, Type-1 angiotensin II receptor (Homo sapiens, UniProt P30556); test: AT1 receptor antagonists, dose response, selectivity assay for APJ receptor antagonist project, cell-based, uHTS hits (AID 463214); format: functional;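 also: antagonist potency against angiotensin II stimulated AT1 response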
T6 sequence (P30556 whole entry): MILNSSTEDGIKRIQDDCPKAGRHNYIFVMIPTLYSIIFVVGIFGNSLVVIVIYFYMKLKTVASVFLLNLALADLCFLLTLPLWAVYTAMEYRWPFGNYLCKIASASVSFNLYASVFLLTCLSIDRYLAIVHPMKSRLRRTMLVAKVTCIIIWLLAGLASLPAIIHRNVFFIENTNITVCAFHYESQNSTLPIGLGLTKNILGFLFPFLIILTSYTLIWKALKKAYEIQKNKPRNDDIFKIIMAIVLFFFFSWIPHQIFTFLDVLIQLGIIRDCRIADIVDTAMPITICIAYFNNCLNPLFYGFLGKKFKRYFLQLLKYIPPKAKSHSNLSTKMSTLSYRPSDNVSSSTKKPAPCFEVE

Beta-galactosidase = Beta-galactosidase (Escherichia coli, UniProt Q8VNN2); test: PubChem AID 485352; format: functional
[10] = M. tuberculosis H37Rv growth inhibitors, H37Rv strain (AID 1626); format: functional
[11] = molecular target: Peroxisome proliferator-activated receptor gamma/Nuclear receptor coactivator 1 (Homo sapiens, UniProt P37231); format: functional;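 also: agonist potency as compounds enhance coactivator SRC-1 recruitment to PPARgamma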
[12] = molecular target: Peroxisome proliferator-activated receptor gamma/Nuclear receptor coactivator 3 (Homo sapiens, UniProt P37231); format: functional;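 also: agonist potency for raising coactivator recruitment to the receptor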
Chain of Peroxisome proliferator-activated receptor gamma/Nuclear receptor coactivator 3 (P37231 whole entry): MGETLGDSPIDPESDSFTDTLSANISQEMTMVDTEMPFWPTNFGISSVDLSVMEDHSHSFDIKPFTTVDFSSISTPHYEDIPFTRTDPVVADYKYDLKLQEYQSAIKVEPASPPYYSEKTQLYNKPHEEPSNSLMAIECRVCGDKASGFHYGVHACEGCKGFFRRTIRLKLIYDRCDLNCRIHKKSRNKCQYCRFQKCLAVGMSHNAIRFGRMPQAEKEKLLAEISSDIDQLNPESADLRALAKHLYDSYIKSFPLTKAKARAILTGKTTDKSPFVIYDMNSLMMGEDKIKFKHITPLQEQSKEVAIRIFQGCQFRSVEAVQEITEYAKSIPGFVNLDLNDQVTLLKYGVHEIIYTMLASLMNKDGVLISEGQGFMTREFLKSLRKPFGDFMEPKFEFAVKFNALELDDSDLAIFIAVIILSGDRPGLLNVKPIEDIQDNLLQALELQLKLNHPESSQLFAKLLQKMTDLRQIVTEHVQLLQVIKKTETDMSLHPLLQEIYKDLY
Chain of Peroxisome proliferator-activated receptor gamma/Nuclear receptor coactivator 3 (Q9Y6Q9 whole entry, further chain): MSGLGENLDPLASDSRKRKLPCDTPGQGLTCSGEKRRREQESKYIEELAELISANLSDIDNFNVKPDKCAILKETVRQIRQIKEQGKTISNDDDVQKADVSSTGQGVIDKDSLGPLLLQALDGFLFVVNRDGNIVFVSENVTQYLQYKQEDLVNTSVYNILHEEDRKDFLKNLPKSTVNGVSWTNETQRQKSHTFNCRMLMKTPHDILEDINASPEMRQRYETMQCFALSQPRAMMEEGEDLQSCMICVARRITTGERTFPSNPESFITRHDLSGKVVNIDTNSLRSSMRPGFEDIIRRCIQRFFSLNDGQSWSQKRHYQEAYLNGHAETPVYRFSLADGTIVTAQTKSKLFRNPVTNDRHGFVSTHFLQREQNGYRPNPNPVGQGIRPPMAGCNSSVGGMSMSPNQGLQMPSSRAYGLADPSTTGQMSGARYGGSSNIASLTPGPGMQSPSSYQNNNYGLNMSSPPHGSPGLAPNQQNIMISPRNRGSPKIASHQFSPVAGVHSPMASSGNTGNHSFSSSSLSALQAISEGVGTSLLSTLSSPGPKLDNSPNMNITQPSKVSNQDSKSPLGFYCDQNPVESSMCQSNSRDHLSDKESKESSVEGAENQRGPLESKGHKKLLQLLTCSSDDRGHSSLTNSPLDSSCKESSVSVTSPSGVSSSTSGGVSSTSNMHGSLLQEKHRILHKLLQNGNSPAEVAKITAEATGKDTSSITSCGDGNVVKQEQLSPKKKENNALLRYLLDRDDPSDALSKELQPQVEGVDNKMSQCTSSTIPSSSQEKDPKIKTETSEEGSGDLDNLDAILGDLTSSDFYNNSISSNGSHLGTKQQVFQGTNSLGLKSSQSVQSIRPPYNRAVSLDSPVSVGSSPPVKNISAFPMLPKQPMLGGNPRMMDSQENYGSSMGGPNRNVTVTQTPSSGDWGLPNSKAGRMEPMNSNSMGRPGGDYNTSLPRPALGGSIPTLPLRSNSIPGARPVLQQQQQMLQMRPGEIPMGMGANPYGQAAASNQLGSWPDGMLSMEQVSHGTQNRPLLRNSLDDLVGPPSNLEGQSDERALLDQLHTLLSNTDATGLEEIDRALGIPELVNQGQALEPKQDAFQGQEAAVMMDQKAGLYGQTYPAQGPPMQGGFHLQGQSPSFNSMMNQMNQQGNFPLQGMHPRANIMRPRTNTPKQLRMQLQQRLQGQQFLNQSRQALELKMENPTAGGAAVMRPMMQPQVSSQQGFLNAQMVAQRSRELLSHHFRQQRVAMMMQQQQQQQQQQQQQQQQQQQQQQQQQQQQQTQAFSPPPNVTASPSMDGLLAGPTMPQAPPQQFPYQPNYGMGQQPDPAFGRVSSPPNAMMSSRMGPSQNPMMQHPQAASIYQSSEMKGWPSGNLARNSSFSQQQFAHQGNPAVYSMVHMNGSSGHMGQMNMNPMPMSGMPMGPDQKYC

[13] = molecular target: Peroxisome proliferator-activated receptor gamma/Nuclear receptor coactivator 2 (Homo sapiens, UniProt P37231); format: functional;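 also: agonist potency for raising coactivator recruitment to the receptor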
Chain of Peroxisome proliferator-activated receptor gamma/Nuclear receptor coactivator 2 (P37231 whole entry): as the sequence (P37231 whole entry) above
Chain of Peroxisome proliferator-activated receptor gamma/Nuclear receptor coactivator 2 (Q15596 whole entry, further chain): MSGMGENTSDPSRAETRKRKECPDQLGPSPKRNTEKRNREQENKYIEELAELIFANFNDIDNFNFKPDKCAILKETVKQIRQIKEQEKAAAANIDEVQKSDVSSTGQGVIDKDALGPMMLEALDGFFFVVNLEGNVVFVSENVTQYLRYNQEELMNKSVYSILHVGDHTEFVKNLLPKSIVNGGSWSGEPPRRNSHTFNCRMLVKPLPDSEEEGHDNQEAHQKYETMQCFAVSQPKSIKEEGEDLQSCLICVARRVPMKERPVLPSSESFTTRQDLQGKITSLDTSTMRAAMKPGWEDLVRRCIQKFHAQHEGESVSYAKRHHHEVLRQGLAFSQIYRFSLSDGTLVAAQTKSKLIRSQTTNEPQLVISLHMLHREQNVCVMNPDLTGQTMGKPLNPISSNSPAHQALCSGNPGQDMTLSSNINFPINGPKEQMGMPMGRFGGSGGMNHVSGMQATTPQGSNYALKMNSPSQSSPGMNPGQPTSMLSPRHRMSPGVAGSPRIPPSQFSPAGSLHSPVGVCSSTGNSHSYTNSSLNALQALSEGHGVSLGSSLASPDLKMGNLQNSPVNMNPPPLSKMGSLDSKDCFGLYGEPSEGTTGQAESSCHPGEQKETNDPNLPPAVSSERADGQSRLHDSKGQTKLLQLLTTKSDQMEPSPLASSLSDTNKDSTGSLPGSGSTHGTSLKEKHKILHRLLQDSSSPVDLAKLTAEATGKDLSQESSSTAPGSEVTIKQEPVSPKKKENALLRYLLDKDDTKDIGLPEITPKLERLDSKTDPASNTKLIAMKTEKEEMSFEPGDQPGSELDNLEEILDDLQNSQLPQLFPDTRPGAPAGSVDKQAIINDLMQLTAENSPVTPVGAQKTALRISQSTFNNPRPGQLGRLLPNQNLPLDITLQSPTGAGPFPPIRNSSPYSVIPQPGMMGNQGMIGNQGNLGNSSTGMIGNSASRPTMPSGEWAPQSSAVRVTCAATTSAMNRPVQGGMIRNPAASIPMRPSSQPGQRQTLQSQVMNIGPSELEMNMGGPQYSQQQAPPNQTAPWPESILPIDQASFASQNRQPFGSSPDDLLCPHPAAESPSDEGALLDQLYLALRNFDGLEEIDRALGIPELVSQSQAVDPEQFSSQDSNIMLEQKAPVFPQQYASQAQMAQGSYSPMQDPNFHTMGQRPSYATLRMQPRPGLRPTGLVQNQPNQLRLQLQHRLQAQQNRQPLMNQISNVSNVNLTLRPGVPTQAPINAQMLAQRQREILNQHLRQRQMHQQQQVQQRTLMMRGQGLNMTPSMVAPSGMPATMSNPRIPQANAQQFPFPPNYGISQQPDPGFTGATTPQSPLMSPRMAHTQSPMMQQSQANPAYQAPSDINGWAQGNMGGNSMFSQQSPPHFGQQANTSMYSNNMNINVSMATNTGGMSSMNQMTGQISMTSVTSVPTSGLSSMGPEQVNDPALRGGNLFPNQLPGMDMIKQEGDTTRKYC

Chain of G-protein coupled receptor 35 (Q9HC97 whole entry, the tested form may be a part): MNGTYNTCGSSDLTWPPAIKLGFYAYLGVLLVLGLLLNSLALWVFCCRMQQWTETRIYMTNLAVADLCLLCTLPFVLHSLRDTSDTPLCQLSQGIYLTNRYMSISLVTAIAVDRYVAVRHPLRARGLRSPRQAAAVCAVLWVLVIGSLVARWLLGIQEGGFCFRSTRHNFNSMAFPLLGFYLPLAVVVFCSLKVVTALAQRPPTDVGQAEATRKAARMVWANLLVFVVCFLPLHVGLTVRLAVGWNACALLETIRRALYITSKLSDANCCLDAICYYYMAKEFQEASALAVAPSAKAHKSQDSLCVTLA

COc1cccc(C2C3CN(C)CC=C3C(C#N)=C(N)C2(C#N)C#N)c1OC (stereo not drawn)
IC50 [1]: 2.74 µM (active)
EC50 [2]: 2.18 µM (inconclusive)
EC50 [3]: 8.49 µM (active)

O=C(COC(=O)c1cncc(Br)c1)NCc1ccco1
IC50 (Bcl-2-like protein 10): 46.9 µM (active)
IC50 [4]: 4.6 µM (active)

CC(C)(C)c1ccc2c(c1)OC(C(=O)N/N=C\c1ccc(-c3cccc(C(=O)O)c3)o1)CO2 (stereo not drawn)
IC50 [5]: > 50 µM (active)

Sc1nnc(-c2cccnc2)n1/N=C/c1cccs1
IC50 [6]: > 100 µM (inactive)
IC50 [7]: 2.75 µM (active)
IC50 [8]: 58 µM (active)

COc1ccc(NC2(c3ccc(Cl)cc3)C(=O)c3ccccc3C2=O)cc1
IC50 [9]: 17.9 µM (active)
EC50 (Beta-galactosidase): > 40 µM (inactive)
IC50 [10]: > 100 µM (active)

CC(C)c1ccc(OCC(=O)NC(=S)Nc2ccc3c4c(cccc24)CC3)cc1
EC50 [11]: > 79.4 µM (not active)
EC50 [12]: > 79.4 µM (not active)
EC50 [13]: > 79.4 µM (not active)

CCn1c(SCC(=O)Nc2ccc(Cl)cc2)nc2nc3c(cc2c1=O)CCCC3
EC50 [11]: > 79.4 µM (not active)
EC50 [12]: > 79.4 µM (not active)
EC50 [13]: > 79.4 µM (not active)
